Results from patent US20210349099A1, “CANCER BIOMARKERS AND METHODS OF USE THEREOF” (X4 Pharmaceuticals, Inc., priority 2017, published 2021).

Key:
[1] = tested on: melanoma, renal cell carcinoma, and ovarian cancer; settings: murine models; cited from earlier work
[2] = tested on: pancreatic adenocarcinoma; settings: murine pancreatic adenocarcinoma; cited from earlier work
[3] = tested on: solid tumors, e.g. advanced or metastatic melanoma; assay: Biomarker findings in tumors; type: in vivo
Excerpt: Granzyme B is associated with cell death/apoptosis mediated by cytotoxic T lymphocytes (CTLs), natural killer (NK) cells, and cytotoxic T cells. Accordingly, in some embodiments, the biomarker is an observed increase in granzyme B expression in a tumor relative to a control. In some embodiments, the cancer is a solid tumor such as advanced or metastatic melanoma. […] Accordingly, in some embodiments, the biomarker is an observed increase in CD8^+ T cells and/or CD4^+ T cells in a tumor relative to a control. In other embodiments, the biomarker is an increase in the ratio of CD8^+ T cells to Treg cells. In some embodiments, the increase is observed by immunohistochemistry or expression levels of one or both of CD8A and CD8B. In some embodiments, an increase in CD8^+ T cells and/or CD4^+ T cells or CD8^+ T cells/Treg ratio in a tumor sample from a patient who has undergone treatment with […]-001 or X4-136 correlates with an increased likelihood that the patient will benefit from continued treatment with […]-001 alone or in combination with an immunotherapeutic agent, e.g., a checkpoint inhibitor such as a PD-1 antagonist. In some embodiments, the PD-1 antagonist is selected from nivolumab and pembrolizumab, or a biosimilar or variant of such PD-1 antagonists. In some embodiments, the checkpoint inhibitor is nivolumab. In some embodiments, the checkpoint inhibitor is a nivolumab biosimilar or variant. In some embodiments, the checkpoint inhibitor is pembrolizumab. In some embodiments, the checkpoint inhibitor is a pembrolizumab biosimilar or variant. In some embodiments, the tumor is a solid tumor such as advanced or metastatic melanoma. […] In some embodiments, the biomarker is IDO1. In some embodiments, the biomarker is CXCL10. In some embodiments, the biomarker is CXCL9. In some embodiments, the biomarker is HLA-DRA. In some embodiments, the biomarker is STAT1. In some embodiments, the biomarker is IFN-γ. In some embodiments, the biomarker is two or more of IDOL, CXCL10, CXCL9, HLA-DRA, STAT1 and IFN-γ. In some embodiments, the biomarker is three or more of IDO1, CXCL10, CXCL9, HLA-DRA, STAT1 and IFN-γ. In some embodiments, the biomarker is four or more of IDOL, CXCL10, CXCL9, HLA-DRA, STAT1 and IFN-γ. In some embodiments, the biomarker is five or more of IDOL, CXCL10, CXCL9, HLA-DRA, STAT1 and IFN-γ. In some embodiments, the biomarker is all of IDOL, CXCL10, CXCL9, HLA-DRA, STAT1 and IFN-γ. In some embodiments, the biomarker is an increase of all of IDO1, CXCL10, CXCL9, HLA-DRA, STAT1 and IFN-γ. In some embodiments, an increase in one, two, three, four, five, or all of IDOL, CXCL10, CXCL9, HLA-DRA, STAT1 and IFN-γ in a tumor sample from a patient who has undergone treatment with […]-001 correlates with an increased likelihood that the patient will benefit from continued treatment with […]-001 alone or in combination with an immunotherapeutic agent, e.g., a checkpoint inhibitor such as a PD-1 antagonist. In some embodiments, the PD-1 antagonist is selected from nivolumab and pembrolizumab, or a biosimilar or variant of such PD-1 antagonists. In some embodiments, the checkpoint inhibitor is nivolumab. In some embodiments, the checkpoint inhibitor is a nivolumab biosimilar or variant. In some embodiments, the checkpoint inhibitor is pembrolizumab. In some embodiments, the checkpoint inhibitor is a pembrolizumab biosimilar or variant. In some embodiments, the tumor is a solid tumor such as advanced or metastatic melanoma. In some embodiments, the biomarker or the use thereof is one of those described in Ayers et al., Journal of Clinical Investigation 2017, 127(8), 2930-2940 [29] (“Ayers et al. (2017)”) or WO 2016/094377, each of which is hereby incorporated by reference. […] Accordingly, in some embodiments, the biomarker is maintenance or decrease of Treg levels in a tumor relative to a control. In some embodiments, the biomarker is the level of FoxP3 expression, which serves as a means to determine the Treg level. […]

B16-OVA tumors = assay: B16-OVA syngeneic melanoma tumor growth; type: in vivo, C57BL/6 mice; settings: sixteen (16) days of treatment, regimens of Table 9
Method: B16-OVA cells (˜1×10^5) were implanted in C57BL/6 mice. Animals were evaluated periodically and when tumors attained a size of approximately 3 mm×3 mm, animals were then grouped randomly and treated for sixteen (16) days.
At the end of treatment animals were sacrificed and dissected to evaluate and sample tumor masts.

[4] = tested on: unresectable or metastatic melanoma; settings: Phase 3 trial, P<0.001; cited from earlier work
[5] = solid tumors, e.g. advanced or metastatic melanoma

c1cc(CN2CCCNCCNCCCNCC2)ccc1CN1CCCNCCNCCCNCC1 [AMD3100, reference compound]
anti-tumor activity [1]: significant anti-tumor activity, including decreased metastasis and increased overall survival
T-cell accumulation among the cancer cells [2]: induced rapid T-cell accumulation

Cc1cccnc1[C@H]1CCC[C@@H](c2ncccc2C)N1CCCCN [X4-136]
CTL signature gene expression in tumor samples or the tumor microenvironment ([3]; in vivo): increase
IFN-γ gene signature (panel of IFN-γ related genes) ([3]; in vivo): increase
PD-L1 expression in tumor samples and the tumor microenvironment ([3]; in vivo): increase
granzyme B (GZMB) expression in cancers [3, 5]: increases
levels of Treg cells [3, 5]: without significantly increasing
levels of macrophages in the tumor [3, 5]: without significantly modulating
observed numbers of CD8+ T cells and/or CD4+ T cells in cancers [3, 5]: increases
levels of the VISTA panel of biomarkers ([3]; tumor samples and the tumor microenvironment): modulate

NCCCCN(Cc1nc2ccccc2[nH]1)[C@H]1CCCc2cccnc21 [X4P]
tumor volumes (B16-OVA tumors): substantially reduced tumor volumes

Pembrolizumab: humanized IgG4 kappa monoclonal antibody that blocks the interaction between PD-1 and its ligands
objective response rate [4]: 33%

ipilimumab: anti-CTLA-4 antibody
objective response rate [4]: 12%
